{"source": "PubChem BioAssay AID1963964", "about": "(Molecular Pharmacology Branch, DTP, NCI, 2024)", "test_system": "997726-040-R-J2-PDC tumor spheroids, viability", "assay": "Anticancer human tumor 997726-040-R-J2-PDC patient-derived squamous cell lung carcinoma cell line growth inhibition [PI3K]", "conditions": "spheroids with HUVEC and MSC; for pIC50: curve of first compound; for viability, T/C: stronger effect = lower value", "how_it_was_run": "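We assembled tumor spheroids that included a stromal compartment of HUVEC and MSCs, then exposed them to targeted agents alone and together with PI3K pathway inhibitors. Concentration series descended by half-log from clinically achievable Cmax levels. Viability served as the endpoint.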", "key": {"[1]": {"conditions": "second compound 0.0316 µM, first compound 0.0316 µM"}, "[2]": {"conditions": "second compound 0.0316 µM, first compound 0.1 µM"}, "[3]": {"conditions": "second compound 0.0316 µM, first compound 0.316 µM"}, "[4]": {"conditions": "second compound 0.0316 µM, first compound 1 µM"}, "[5]": {"conditions": "second compound 0.0316 µM, first compound 3.16 µM"}, "[6]": {"conditions": "second compound 0.0316 µM, first compound 10 µM"}, "[7]": {"conditions": "second compound 0.1 µM, first compound 0.0316 µM"}, "[8]": {"conditions": "second compound 0.1 µM, first compound 0.1 µM"}, "[9]": {"conditions": "second compound 0.1 µM, first compound 0.316 µM"}, "[10]": {"conditions": "second compound 0.1 µM, first compound 1 µM"}, "[11]": {"conditions": "second compound 0.1 µM, first compound 3.16 µM"}, "[12]": {"conditions": "second compound 0.1 µM, first compound 10 µM"}, "[13]": {"conditions": "second compound 0.316 µM, first compound 0.0316 µM"}, "[14]": {"conditions": "second compound 0.316 µM, first compound 0.1 µM"}, "[15]": {"conditions": "second compound 0.316 µM, first compound 0.316 µM"}, "[16]": {"conditions": "second compound 0.316 µM, first compound 1 µM"}, "[17]": {"conditions": "second compound 0.316 µM, first compound 3.16 µM"}, "[18]": {"conditions": "second compound 0.316 µM, first compound 10 µM"}, "[19]": {"conditions": "second compound 1 µM, first compound 0.0316 µM"}, "[20]": {"conditions": "second compound 1 µM, first compound 0.1 µM"}, "[21]": {"conditions": "second compound 1 µM, first compound 0.316 µM"}, "[22]": {"conditions": "second compound 1 µM, first compound 1 µM"}, "[23]": {"conditions": "second compound 1 µM, first compound 3.16 µM"}, "[24]": {"conditions": "second compound 1 µM, first compound 10 µM"}, "[25]": {"conditions": "second compound 3.16 µM, first compound 0.0316 µM"}, "[26]": {"conditions": "second compound 3.16 µM, first compound 0.1 µM"}, "[27]": {"conditions": "second compound 3.16 µM, first compound 0.316 µM"}, "[28]": {"conditions": "second compound 3.16 µM, first compound 1 µM"}, "[29]": {"conditions": "second compound 3.16 µM, first compound 3.16 µM"}, "[30]": {"conditions": "second compound 3.16 µM, first compound 10 µM"}, "[31]": {"conditions": "second compound 10 µM, first compound 0.0316 µM"}, "[32]": {"conditions": "second compound 10 µM, first compound 0.1 µM"}, "[33]": {"conditions": "second compound 10 µM, first compound 0.316 µM"}, "[34]": {"conditions": "second compound 10 µM, first compound 1 µM"}, "[35]": {"conditions": "second compound 10 µM, first compound 3.16 µM"}, "[36]": {"conditions": "second compound 10 µM, first compound 10 µM"}}, "note": "pIC50: −log10 of the molar value.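 Note: spheroids exposed to compounds for seven days before readout.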"}
{"smiles": "CC1(C)CCC(CN2CCN(c3ccc(C(=O)NS(=O)(=O)c4ccc(NCC5CCOCC5)c([N+](=O)[O-])c4)c(Oc4cnc5[nH]ccc5c4)c3)CC2)=C(c2ccc(Cl)cc2)C1", "note": "+ Cc1nc(NC(=O)N2CCCC2C(N)=O)sc1-c1ccnc(C(C)(C)C(F)(F)F)c1", "values": [{"measurement": "pIC50", "setting": "second compound 0.0316 µM", "result": 5.21}, {"measurement": "pIC50", "setting": "second compound 0.1 µM", "result": 5.29}, {"measurement": "pIC50", "setting": "second compound 0.316 µM", "result": 5.60}, {"measurement": "pIC50", "setting": "second compound 1 µM", "result": "> 7.50"}, {"measurement": "pIC50", "setting": "second compound 3.16 µM", "result": "> 7.50"}, {"measurement": "pIC50", "setting": "second compound 10 µM", "result": "> 7.50"}, {"measurement": "viability, T/C", "setting": "[1]", "result": 84.2, "unit": "%"}, {"measurement": "viability, T/C", "setting": "[2]", "result": 90.8, "unit": "%"}, {"measurement": "viability, T/C", "setting": "[3]", "result": 86.1, "unit": "%"}, {"measurement": "viability, T/C", "setting": "[4]", "result": 91.3, "unit": "%"}, {"measurement": "viability, T/C", "setting": "[5]", "result": 76, "unit": "%"}, {"measurement": "viability, T/C", "setting": "[6]", "result": 30.9, "unit": "%"}, {"measurement": "viability, T/C", "setting": "[7]", "result": 73, "unit": "%"}, {"measurement": "viability, T/C", "setting": "[8]", "result": 71.8, "unit": "%"}, {"measurement": "viability, T/C", "setting": "[9]", "result": 74.9, "unit": "%"}, {"measurement": "viability, T/C", "setting": "[10]", "result": 75.5, "unit": "%"}, {"measurement": "viability, T/C", "setting": "[11]", "result": 67.4, "unit": "%"}, {"measurement": "viability, T/C", "setting": "[12]", "result": 25.7, "unit": "%"}, {"measurement": "viability, T/C", "setting": "[13]", "result": 58.3, "unit": "%"}, {"measurement": "viability, T/C", "setting": "[14]", "result": 58.6, "unit": "%"}, {"measurement": "viability, T/C", "setting": "[15]", "result": 56.2, "unit": "%"}, {"measurement": "viability, T/C", "setting": "[16]", "result": 53.6, "unit": "%"}, {"measurement": "viability, T/C", "setting": "[17]", "result": 49.5, "unit": "%"}, {"measurement": "viability, T/C", "setting": "[18]", "result": 25.6, "unit": "%"}, {"measurement": "viability, T/C", "setting": "[19]", "result": 48.9, "unit": "%"}, {"measurement": "viability, T/C", "setting": "[20]", "result": 41, "unit": "%"}, {"measurement": "viability, T/C", "setting": "[21]", "result": 39, "unit": "%"}, {"measurement": "viability, T/C", "setting": "[22]", "result": 39.5, "unit": "%"}, {"measurement": "viability, T/C", "setting": "[23]", "result": 39.2, "unit": "%"}, {"measurement": "viability, T/C", "setting": "[24]", "result": 11.1, "unit": "%"}, {"measurement": "viability, T/C", "setting": "[25]", "result": 25, "unit": "%"}, {"measurement": "viability, T/C", "setting": "[26]", "result": 28.1, "unit": "%"}, {"measurement": "viability, T/C", "setting": "[27]", "result": 27.2, "unit": "%"}, {"measurement": "viability, T/C", "setting": "[28]", "result": 26.2, "unit": "%"}, {"measurement": "viability, T/C", "setting": "[29]", "result": 24.5, "unit": "%"}, {"measurement": "viability, T/C", "setting": "[30]", "result": 8.65, "unit": "%"}, {"measurement": "viability, T/C", "setting": "[31]", "result": 14.8, "unit": "%"}, {"measurement": "viability, T/C", "setting": "[32]", "result": 10.8, "unit": "%"}, {"measurement": "viability, T/C", "setting": "[33]", "result": 7.16, "unit": "%"}, {"measurement": "viability, T/C", "setting": "[34]", "result": 6.93, "unit": "%"}, {"measurement": "viability, T/C", "setting": "[35]", "result": 5.25, "unit": "%"}, {"measurement": "viability, T/C", "setting": "[36]", "result": 2.97, "unit": "%"}]}
{"smiles": "C[C@@H](NC(=O)c1ncnc(N)c1Cl)c1ncc(C(=O)Nc2cc(C(F)(F)F)c(Cl)cn2)s1", "note": "+ Cc1nc(NC(=O)N2CCCC2C(N)=O)sc1-c1ccnc(C(C)(C)C(F)(F)F)c1", "values": [{"measurement": "pIC50", "setting": "second compound 0.0316 µM", "result": "< 5.00"}, {"measurement": "pIC50", "setting": "second compound 0.1 µM", "result": "< 5.00"}, {"measurement": "pIC50", "setting": "second compound 0.316 µM", "result": "< 5.00"}, {"measurement": "pIC50", "setting": "second compound 1 µM", "result": 7.23}, {"measurement": "pIC50", "setting": "second compound 3.16 µM", "result": "> 7.50"}, {"measurement": "pIC50", "setting": "second compound 10 µM", "result": "> 7.50"}, {"measurement": "viability, T/C", "setting": "[1]", "result": 101, "unit": "%"}, {"measurement": "viability, T/C", "setting": "[2]", "result": 115, "unit": "%"}, {"measurement": "viability, T/C", "setting": "[3]", "result": 111, "unit": "%"}, {"measurement": "viability, T/C", "setting": "[4]", "result": 107, "unit": "%"}, {"measurement": "viability, T/C", "setting": "[5]", "result": 102, "unit": "%"}, {"measurement": "viability, T/C", "setting": "[6]", "result": 68.2, "unit": "%"}, {"measurement": "viability, T/C", "setting": "[7]", "result": 96, "unit": "%"}, {"measurement": "viability, T/C", "setting": "[8]", "result": 97.5, "unit": "%"}, {"measurement": "viability, T/C", "setting": "[9]", "result": 99.5, "unit": "%"}, {"measurement": "viability, T/C", "setting": "[10]", "result": 83.9, "unit": "%"}, {"measurement": "viability, T/C", "setting": "[11]", "result": 66.3, "unit": "%"}, {"measurement": "viability, T/C", "setting": "[12]", "result": 60.2, "unit": "%"}, {"measurement": "viability, T/C", "setting": "[13]", "result": 64.7, "unit": "%"}, {"measurement": "viability, T/C", "setting": "[14]", "result": 62.4, "unit": "%"}, {"measurement": "viability, T/C", "setting": "[15]", "result": 66.8, "unit": "%"}, {"measurement": "viability, T/C", "setting": "[16]", "result": 76.3, "unit": "%"}, {"measurement": "viability, T/C", "setting": "[17]", "result": 61.3, "unit": "%"}, {"measurement": "viability, T/C", "setting": "[18]", "result": 47.7, "unit": "%"}, {"measurement": "viability, T/C", "setting": "[19]", "result": 49.4, "unit": "%"}, {"measurement": "viability, T/C", "setting": "[20]", "result": 49.5, "unit": "%"}, {"measurement": "viability, T/C", "setting": "[21]", "result": 45.3, "unit": "%"}, {"measurement": "viability, T/C", "setting": "[22]", "result": 48.6, "unit": "%"}, {"measurement": "viability, T/C", "setting": "[23]", "result": 42.8, "unit": "%"}, {"measurement": "viability, T/C", "setting": "[24]", "result": 35.4, "unit": "%"}, {"measurement": "viability, T/C", "setting": "[25]", "result": 36.6, "unit": "%"}, {"measurement": "viability, T/C", "setting": "[26]", "result": 39.9, "unit": "%"}, {"measurement": "viability, T/C", "setting": "[27]", "result": 34.5, "unit": "%"}, {"measurement": "viability, T/C", "setting": "[28]", "result": 33, "unit": "%"}, {"measurement": "viability, T/C", "setting": "[29]", "result": 35.9, "unit": "%"}, {"measurement": "viability, T/C", "setting": "[30]", "result": 21.2, "unit": "%"}, {"measurement": "viability, T/C", "setting": "[31]", "result": 15, "unit": "%"}, {"measurement": "viability, T/C", "setting": "[32]", "result": 15.4, "unit": "%"}, {"measurement": "viability, T/C", "setting": "[33]", "result": 18.4, "unit": "%"}, {"measurement": "viability, T/C", "setting": "[34]", "result": 18.8, "unit": "%"}, {"measurement": "viability, T/C", "setting": "[35]", "result": 19.6, "unit": "%"}, {"measurement": "viability, T/C", "setting": "[36]", "result": 8.61, "unit": "%"}]}
